# Patent publication US11136291B2, “Antifungal compounds and uses thereof” (Dana-Farber Cancer Institute, Inc., priority 2016, dated 2021)
# Entries after “also recorded” stand apart in the source; their conditions may differ.
# Tests used:
# CgGal11A KIX domain = target: T1, CgGal11A KIX domain (Candida glabrata, UniProt Q6FRS9); experiment: Fluorescence polarization (FP) binding/competition assay, CgPdr1 AD30 with CgGal11A KIX; settings: calculated from measured Kd and IC50; read-out: apparent Ki
# T1 construct: other: compared with iKIX1; other: GST-CgGal11A KIX 3 μM, 30 nM FITC-CgPdr1 AD30; Kd of CgPdr1 AD30 for CgGal11A KIX domain; other: FP titration, 30 nM FITC-CgPdr1 AD30; Kd of the CgPdr1 AD for the CgGal11A KIX domain; apparent Ki; fused on or other part: N-terminal His6-GST tag
# Protocol: A fluorescein-tagged 30 amino acid C-terminal activation domain of CgPdr1 (FITC-[…] (SEQ ID NO: 1)) CgPdr1 AD30 was purchased as a synthetic peptide from Pepide2.0. The CgGal11A KIX domain was expressed as a His6-GST fusion protein and purified by affinity chromatography with Ni-NTA resin (Qiagen) and size exclusion chromatography (Sephadex 75, Pharmacia). […] For small molecule screening, fluorescein-CgPdr1 AD30 was held at a concentration of 30 nM and the GST-tagged CgGal11A KIX was at a concentration of 1 μM (above the Kd). The screen was carried out in duplicate and the volume in each well was 25 μL.
# To measure the dissociation constant (Kd) of CgPdr1 AD30, FITC labeled CgPdr1 AD30 was held at a concentration of 30 nM and the GST-tagged CgGal11A KIX was prepared with concentrations ranging from 0 to 300 μM. The IC50 for iKIX-1 binding was measured with GST-tagged CgGal11A KIX held at a constant 3 μM concentration, iKIX-1 was titrated from 0 to 1000 μM and 30 nM FITC-labeled CgPdr1 AD30 was added subsequently with an HP D300 digital dispenser (Tecan Group. Maennerdorf, Switzerland). All experiments were carried out in duplicate and the s.d. is reported at each point on the plot.
# The FP titration curve of the CgPdr1 AD30 was fitted to GraphPad Prisms (La Jolla, Calif., USA) One site-total binding equation (equation 1). […]
# [1] = system: PDRE-dependent luciferase gene transcription; assay type: cell-based, Saccharomyces cerevisiae; settings: 40 μM ketoconazole
# [2] = system: CgCDR1 transcription (CgPdr1 target); experiment: Transcription assay, quantitative real-time PCR of CgPdr1 target genes; assay type: cell-based, Candida glabrata
# HepG2 cells = experiment: HepG2 cell viability (CellTiter-Glo); assay type: cell-based, Human; settings: 72 hours
# Protocol: HepG2 (ATCC HB-8065) cell viability was assessed using the CellTiter-Glo assay kit (Promega). HepG2 cells (N=4,500) were seeded in each well in 100 μL MEM+10% FBS in 96-well CellBIND (Corning) plates. After 24 hours, iKIX1 was added to final concentrations indicated for a final volume of 150 μL. HepG2 cells were incubated with iKIX1 for another 72 hours before CellTiter-Glo signal was assessed with an Envision 2103 Multilabel plate reader according to the manufacturer's instructions.
# [3] = system: ScPdr1 target genes (ScPDR5, ScSNQ2); experiment: Transcription assay, quantitative real-time PCR of ScPdr1 target genes; assay type: cell-based, Saccharomyces cerevisiae; settings: ketoconazole induced
# Protocol: ChIP was performed according to standard procedures (see. e.g., McConnell A D, Gelbart M E, Tsukiyama T. Histone fold protein Dls1p is required for Isw2-dependent chromatin remodeling in vivo. Mol Cell Biol. 2004; 24(7):2605-13. PMCID: 371119). Briefly, cells were grown to saturation then washed 2 times with sterilized Milli-Q (Millipore) water, resuspended to an OD600 of 0.8 in YP (1% yeast extract, 2% bacto peptone) and then grown for 6 hours at 30° C. with shaking in the presence of DMSO (vehicle) or iKIX1. Cultures were induced with ketoconazole to a final concentration of 40 μM and harvested at the times indicated. 2 mL of culture was harvested at 0′ and 15′ for matched transcription samples; RNA was prepared as described below. Cells were fixed with 1% formaldehyde (final) for 15 minutes with swirling and then quenched with 125 mM glycine (final) for 5 min. with swirling. Cells were pelleted, washed with TBS+125 mM glycine and then TBS. Cells were lysed in buffer containing 50 mM HEPES, pH 7.5, 140 mM NaCl, 1% Triton X-100, 0.1% sodium deoxycholate, 1 mM EDTA and protease inhibitors and 0.5 mm glass beads. […]
# For harvest and preparation of RNA. cells equivalent to an OD600 of 0.4 were centrifuged at 4,000 rpm for 4 minutes and then resuspended in 700 μL Trizol. […] Quantitative real-time PCR reactions were run and analyzed on a Roche LightCycler 480 system. […]
# [4] = system: azole-activated and Pdr1-dependent genes; experiment: RNA-Seq; settings: 10 μM iKIX1 with 40 μM ketoconazole
# Protocol: Cells were grown in YPD at 30° C. with shaking overnight (24 hours) then washed twice in 2× volume of Milli-Q water before being resuspended in YP to an OD600 of 0.8. Cells were grown with shaking overnight (˜16 hours) before splitting and treatment with vehicle (DMSO) or 10 μM iKIX1. Cells were grown with shaking another 8 hours before harvest of non-azole induced samples. Remaining cultures were induced to a final concentration of 40 μM ketoconazole and harvested after 15 minutes by centrifugation at 4,000 rpm for 4 minutes at 4° C. Media was aspirated and cells were snap frozen on dry ice. RNA isolation was performed as previously described (see, e.g., Martin R, Moran G P, Jacobsen I D, Heyken A, Domey J, Sullivan D J, et al. The Candida albicans-specific gene EED1 encodes a key regulator of hyphal extension. PLoS One.6(4):e18394. PMCID: 3075580); RNA was then DNase treated using recombinant DNasel. […] Sequencing was carried out on Illumina HiSeq 2500, resulting in approximately 17.68 million of 50 bp paired-end reads per sample. STAR aligner was used to map sequencing reads to transcripts in the reference genomes (S288C for Saccharomyces cerevisiae and draft genome from isolate DSY562 for Candida glabrata) (see, e.g., Dobin A, Davis C A, Schlesinger F, Drenkow J, Zaleski C, Jha S, et al. STAR: ultrafast universal RNA-seq aligner. Bioinformatics.29(1):15-21. PMCID: 3530905). […]
# Candida glabrata DSY565 = experiment: Broth dilution MIC; settings: Nakaseomyces glabratus
# Protocol: Antifungal susceptibility testing was carried out using broth dilution assays which examined effects of two-fold dilutions of compounds on cellular growth. The minimum inhibitory concentration (MIC) was defined as the drug concentration at which the optical density was equal to or decreased more than 50% from that of the drug-free culture.
# T1 sequence (Q6FRS9 whole entry, looked up, the tested form may be a part): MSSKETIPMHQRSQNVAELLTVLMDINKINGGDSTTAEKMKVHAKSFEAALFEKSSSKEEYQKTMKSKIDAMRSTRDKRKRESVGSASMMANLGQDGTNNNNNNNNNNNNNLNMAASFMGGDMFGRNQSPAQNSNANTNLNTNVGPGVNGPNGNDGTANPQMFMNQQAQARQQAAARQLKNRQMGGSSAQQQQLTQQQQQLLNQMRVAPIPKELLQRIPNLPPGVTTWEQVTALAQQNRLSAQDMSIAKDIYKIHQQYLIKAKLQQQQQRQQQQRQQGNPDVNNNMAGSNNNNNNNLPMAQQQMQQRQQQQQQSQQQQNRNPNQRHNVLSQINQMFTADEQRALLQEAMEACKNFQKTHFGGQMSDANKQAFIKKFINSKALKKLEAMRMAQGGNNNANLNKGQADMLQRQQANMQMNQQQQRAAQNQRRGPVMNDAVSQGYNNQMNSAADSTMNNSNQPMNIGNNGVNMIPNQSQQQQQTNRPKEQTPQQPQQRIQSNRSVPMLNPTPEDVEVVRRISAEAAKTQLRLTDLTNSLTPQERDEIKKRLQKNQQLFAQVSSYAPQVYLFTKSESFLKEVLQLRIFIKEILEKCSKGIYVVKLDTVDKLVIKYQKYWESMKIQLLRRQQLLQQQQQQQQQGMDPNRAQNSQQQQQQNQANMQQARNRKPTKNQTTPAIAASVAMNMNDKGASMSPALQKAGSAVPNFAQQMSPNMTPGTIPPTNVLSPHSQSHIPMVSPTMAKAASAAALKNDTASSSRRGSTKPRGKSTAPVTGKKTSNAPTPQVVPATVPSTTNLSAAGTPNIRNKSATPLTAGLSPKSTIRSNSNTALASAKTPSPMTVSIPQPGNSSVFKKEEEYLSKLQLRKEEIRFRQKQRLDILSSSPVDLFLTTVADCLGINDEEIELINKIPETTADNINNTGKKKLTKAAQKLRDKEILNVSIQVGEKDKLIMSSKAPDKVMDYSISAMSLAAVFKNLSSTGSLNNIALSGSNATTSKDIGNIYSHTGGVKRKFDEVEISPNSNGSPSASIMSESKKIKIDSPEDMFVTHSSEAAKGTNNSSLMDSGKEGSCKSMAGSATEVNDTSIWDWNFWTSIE
smiles,measurement,setting,value
"N#CCC(=O)NNC(=S)Nc1ccc(Cl)c(Cl)c1 [iKIX1, 2-(2-Cyanoacetyl)-N-(3,4-dichlorophenyl)hydrazinecarbothioamide]",Ki,CgGal11A KIX domain,18.1 µM
same,ketoconazole-induced luciferase activity (in words),[1],able to block this induction in a concentration-dependent manner; also recorded: inhibits ketoconazole (KET)-induced upregulation of luciferase activity in a dose-responsive manner
same,ketoconazole-induced CgPdr1 target gene (CgCDR1) transcription (in words),"[2]; CgPDR1 wild-type strain (SFY114), pre-treatment then 40 μM ketoconazole",reduced target gene induction in a durable and concentration-dependent manner
same,Pdr1-target gene induction,"[2]; iKIX1 alone, no azole",did not significantly affect Pdr1-target gene induction
same,azole-induced transcription of CgPdr1 target genes,[2]; isogenic strains with gain-of-function CgPDR1 mutations,"reduced azole-induced transcription of CgPdr1 target genes (e.g., CgCDR1) in a concentration-dependent manner in all strains tested"
same,concentrations that inhibit viability of HepG2 cells,HepG2 cells,> 50 µM
same,IC50,"HepG2 cells; Homo sapiens, HepG2, read-out: IC50, toxicity in HepG2 cells",~100 µM
same,azole-induced transcription of ScPdr1 target genes,[3],strongly inhibited azole-induced transcription of ScPdr1 target genes
same,expression of azole-activated and Pdr1-dependent genes,[4],strongly blunted expression of many azole-activated and Pdr1-dependent genes
same,MIC,Candida glabrata DSY565,12.5 µM
